Assay [1] has as its target Human CB1R (Cannabanoid receptor 1) (Homo sapiens (Human), UniProt P21554). In words: CB-1 in vitro cAMP (HTRF) assay in HEK-293 cells. The note with it: HEK-293 cells stably transfected with human CB1R, 250 nM Forskolin, mean where tested more than once, read-out: CB-1 (HEK_cAMP) EC50. The assay is classed as cell-based. The source says: (§1) CB1 and CB2 receptors are Gi-coupled GPCR. Activation of CB1 and CB2 receptors results in a decrease in cAMP production. An inverse agonist of the CB1 or CB2 receptor results in the opposite effect, an increase of cAMP production. The principle of this assay is based on HTRF® technology (Homogeneous Time-Resolved Fluorescence). The method is a competitive immunoassay between native cAMP produced by cells and the cAMP labeled with the fluorophore d2. The tracer binding is quantified by a Mab anti-cAMP labeled with Eu3+TBP-NHS Cryptate (supplied as part of the assay kit). The specific signal (i.e. energy transfer) is inversely proportional to the concentration of cAMP in the standard or sample.
(§2) Human CB1R (Cannabanoid receptor 1) was stably transfected in HEK-293 cells (DiscoveRx, cat: 93-0200C1). Human CB2R (Cannabanoid receptor 2) was stably transfected in HEK-293 cells (DiscoveRx, cat: 93-0201C1). Cell cultures were maintained in media: DMEM (Invitrogen Cat#12430-054) supplemented with 10% HI FBS (Invitrogen Cat#16140-071), 1% L-glutamine (Invitrogen Cat#25030-081), 0.2 mg/ml Hygromycin B (Invitrogen Cat#10687-010), 600 μg/mL G418 (Invitrogen Cat#10131-035), and 1× Penn/Strep (Invitrogen 15140-122). After cell expansion, aliquots were cryo-stored in media containing 5% DMSO (Pierce Cat#20684).
(§3) One day prior to experiments media was warmed to 37° C. and the cryo-stored cells were thawed in a 37° C. water bath. The cells were then added to media (10× volume) and the mixture was centrifugated at 1000 RPM for 5 min. The supernate was removed and the cells were re-suspended in media. A sample of the cell suspension was evaluated on a Cedex XS automated cell counter (Innovatis Systems) to determine viable cells/ml. Additional media was added to the cells to achieve a final cell density of 4E5 cells/mL. The cells were then plated into 384 well PDL white solid bottom plates (Greiner, Cat#781945) at 20 μL per well using a Multidrop (Thermo Scientific). Cells were removed from Row P (location of cAMP standards). Two columns of cells were plated into a clear bottom 384 well PDL coated plate (Greiner, Cat#781944) to view confluence the day of the assay. The cell plates were lidded and stored for 15 minutes in a hood, then transferred to an incubator (37° C., 5% CO2, 95% humidity) overnight.
(§4) DMSO was added to all wells of 384 well V bottom polystyrene plate (Greiner, Cat#781280) except to columns 1 and 13, rows O and P and wells M13-M23 and N13-N23. Test compounds (60 μL, 10 mM) were added to Column 1 and 13 (A1 through N1 and A13 through L13). Test compounds were serially diluted 1/3 by transferring and mixing 20 μl sample with 40 μL DMSO.
(§5) DMSO (40 μL) was added to wells of 384 well V bottom polystyrene plate: O2 through O11, M14 through M23, N14 through N23, and O14 through 023. AM630 (also known as [6-iodo-2-methyl-1-[2-(4-morpholinyl)ethyl]-1H-indol-3-yl](4-methoxyphenyl)-methanone, Cayman Chemical, Cat#10006974) (60 μL, 10 mM) was added to 01; and 1-(2,4-dichlorophenyl)-7-[(4-fluorophenyl)methylene]-4,5,6,7-tetrahydro-N-1-piperidinyl-1H-indazole-3-carboxamide (60 μL, 10 mM) was added to N13. The control was serially diluted 1/3 by transferring and mixing 20 μl sample with 40 μL DMSO. This process resulted 11 doses per control, 10 mM to […].
(§6) Cells plated the day prior to the assay in clear bottom plates were viewed on an inverse microscope to ensure confluency in the range of 60-75%. […]
A general note: In TR-FRET formats the signal depends on donor and acceptor labels being close together.

Assay [2] has as its target Human CB2R (Cannabanoid receptor 2) (Homo sapiens (Human), UniProt P34972). The experiment in a line: CB-2 in vitro cAMP (HTRF) assay in HEK-293 cells. The assay is classed as cell-based. The note with it: HEK-293 cells stably transfected with human CB2R, 250 nM Forskolin, mean where tested more than once, read-out: CB-2 (HEK_cAMP) EC50.
Excerpt: as §1, §2, §3, §4, §5, §6

Experimental findings from patent US9682940B2, “Indazole derivatives useful as CB-1 inverse agonists” (Janssen Pharmaceutica NV, priority 2015, dated 2017) are described below.

Human CB2R (Cannabanoid receptor 2), sequence (P34972 whole entry): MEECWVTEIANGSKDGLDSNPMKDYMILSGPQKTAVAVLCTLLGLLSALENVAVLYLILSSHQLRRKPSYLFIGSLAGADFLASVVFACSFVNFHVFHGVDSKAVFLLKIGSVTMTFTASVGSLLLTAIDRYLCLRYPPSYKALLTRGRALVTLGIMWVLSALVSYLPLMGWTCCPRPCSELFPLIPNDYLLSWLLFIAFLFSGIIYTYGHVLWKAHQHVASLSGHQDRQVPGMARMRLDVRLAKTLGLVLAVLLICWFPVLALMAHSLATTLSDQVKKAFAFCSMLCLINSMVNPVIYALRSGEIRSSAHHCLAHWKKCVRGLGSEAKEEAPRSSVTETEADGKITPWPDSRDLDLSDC
Human CB1R (Cannabanoid receptor 1), sequence (P21554 whole entry): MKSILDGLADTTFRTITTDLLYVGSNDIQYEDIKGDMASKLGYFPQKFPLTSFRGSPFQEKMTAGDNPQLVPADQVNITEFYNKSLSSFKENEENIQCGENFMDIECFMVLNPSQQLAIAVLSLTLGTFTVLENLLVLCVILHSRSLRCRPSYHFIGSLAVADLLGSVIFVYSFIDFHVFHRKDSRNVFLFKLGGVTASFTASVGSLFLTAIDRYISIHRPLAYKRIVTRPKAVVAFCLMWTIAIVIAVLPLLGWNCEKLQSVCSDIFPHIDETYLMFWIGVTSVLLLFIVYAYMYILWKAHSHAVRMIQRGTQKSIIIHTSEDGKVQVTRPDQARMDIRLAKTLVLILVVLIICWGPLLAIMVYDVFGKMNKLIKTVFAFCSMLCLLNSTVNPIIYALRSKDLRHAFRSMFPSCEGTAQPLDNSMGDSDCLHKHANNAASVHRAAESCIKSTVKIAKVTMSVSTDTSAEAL

Broadly, the EC50 is the concentration that produces a half-maximal response. For the compound `O=C(O)CS(=O)(=O)N1CCC(c2n[nH]c3ccc(C(c4ccc(Cl)cc4)c4ccc(Cl)cc4)cc23)CC1` [Compound 22], the figures for the EC50 in assay [1] and in assay [2] were 249 nM and greater than 10000 nM, respectively.

Consider `COc1cccc(S(=O)(=O)N2CCC(Nc3n[nH]c4ccc(C(c5ccc(Cl)cc5)c5ccc(Cl)cc5)cc34)CC2)c1` [Compound 101], for which the EC50 in assay [1] was 293 nM; in assay [2], greater than 10000 nM.

Consider `O=C(O)COc1cccc(N2CCC(c3nn(C4CC4)c4ccc(C(c5ccc(Cl)cc5)c5ccc(Cl)cc5)cc34)CC2)c1` [Compound 191], for which the EC50 is 5290 nM in assay [1] and greater than 10000 nM in assay [2].

Regarding `NC(=O)COc1cccc(N2CCC(c3nn(C4CC4)c4ccc(C(c5ccc(Cl)cc5)c5ccc(Cl)cc5)cc34)CC2)c1` [Compound 199], the values for the EC50 in assay [1] and in assay [2] were 158 nM and greater than 10000 nM, respectively.

For `O=C(O)c1cccc(S(=O)(=O)N2CCC(c3c4cc(C(c5ccc(Cl)cc5)c5ccc(Cl)cc5)ccc4nn3C3CC3)CC2)c1` [Compound 116, 3-(4-(5-(bis(4-chlorophenyl)methyl)-2-cyclopropyl-2H-indazol-3-yl)piperidin-1-ylsulfonyl)benzoic acid], the EC50 turned out to be 5 nM in assay [1] and 7990 nM in assay [2].

On to `O=C(O)CCS(=O)(=O)N1CCC(c2nn(CCO)c3ccc(C(c4ccc(Cl)cc4)c4ccc(Cl)cc4)cc23)CC1` [Compound 83], for which the figures for the EC50 in assay [1] and in assay [2] were 1570 nM and greater than 10000 nM, respectively.

With `O=C(O)c1cccc(CN2CCC(c3c4cc(C(c5ccc(Cl)cc5)c5ccc(Cl)cc5)ccc4nn3C3CC3)CC2)c1` [Compound 257, 3-((4-(5-(bis(4-chlorophenyl)methyl)-2-cyclopropyl-2H-indazol-3-yl)piperidin-1-yl)methyl)benzoic acid], the values for the EC50 in assay [1] and in assay [2] were 13 nM and greater than 5000 nM, respectively.

In the case of `NC(=O)c1cccc(CN2CCC(c3n[nH]c4ccc(C(c5ccc(Cl)cc5)c5ccc(Cl)cc5)cc34)CC2)c1` [Compound 220], the EC50 in assay [1] is 27 nM; in assay [2], greater than 10000 nM.

Regarding `O=S(=O)(N1CCC(c2nn(-c3ccc(OC(F)(F)F)cc3)c3ccc(C(c4ccc(Cl)cc4)c4ccc(Cl)cc4)cc23)CC1)C(F)(F)F` [Compound 49], the figures for the EC50 in assay [1] and in assay [2] were 18 nM and greater than 10000 nM, respectively.

As to `COc1ccccc1S(=O)(=O)N1CCC(Nc2n[nH]c3ccc(C(c4ccc(Cl)cc4)c4ccc(Cl)cc4)cc23)CC1` [Compound 100], the EC50 in assay [1] was 428 nM; in assay [2] it was greater than 10000 nM.

As to `CC(C)S(=O)(=O)N1CCC(Nc2n[nH]c3ccc(C(c4ccc(Cl)cc4)c4ccc(Cl)cc4)cc23)CC1` [Compound 78], the EC50 in assay [1] was 179 nM; in assay [2], greater than 10000 nM.

Turning to `O=S(=O)(N1CCC(Nc2n[nH]c3ccc(C(c4ccc(Cl)cc4)c4ccc(Cl)cc4)cc23)CC1)C(F)(F)F` [Compound 77], the EC50 was 60 nM in assay [1] and greater than 10000 nM in assay [2].

Regarding `O=S(=O)(N1CCC(c2nn(-c3ccc(C(F)(F)F)cc3)c3ccc(C(c4ccc(Cl)cc4)c4ccc(Cl)cc4)cc23)CC1)C(F)(F)F` [Compound 46], the EC50 in assay [1] was 40 nM; in assay [2], greater than 10000 nM.

Regarding `Cn1nc(C2CCN(S(=O)(=O)c3ccc(C(N)=O)cc3)CC2)c2cc(C(c3ccc(Cl)cc3)c3ccc(Cl)cc3)ccc21` [Compound 64], the values for the EC50 in assay [1] and in assay [2] were 24 nM and greater than 10000 nM, respectively.

On to `COc1ccc(S(=O)(=O)N2CCC(c3c4cc(C(c5ccc(Cl)cc5)c5ccc(Cl)cc5)ccc4nn3C3CC3)CC2)cc1C(N)=O` [Compound 158, 5-(4-(5-(bis(4-chlorophenyl)methyl)-2-cyclopropyl-2H-indazol-3-yl)piperidin-1-ylsulfonyl)-2-methoxybenzamide], for which the EC50 in assay [1] is 3 nM; in assay [2] it was greater than 10000 nM.

`O=C(O)c1ccc(CN2CCC(c3nn(C4CC4)c4ccc(C(c5ccc(Cl)cc5)c5ccc(Cl)cc5)cc34)CC2)cc1` [Compound 209]: the EC50 is 68 nM in assay [1] and greater than 10000 nM in assay [2].

On to `NC(=O)c1cccc(S(=O)(=O)N2CCC(c3n[nH]c4ccc(C(c5ccc(Cl)cc5)c5ccc(Cl)cc5)cc34)CC2)c1` [Compound 66], for which the EC50 is 160 nM in assay [1] and greater than 10000 nM in assay [2].

For the compound `CC(=O)n1nc(N2CCN(S(=O)(=O)C(F)(F)F)CC2)c2cc(C(c3ccc(Cl)cc3)c3ccc(Cl)cc3)ccc21` [Compound 44], the EC50 in assay [1] was 14 nM; in assay [2] it was greater than 10000 nM.

`NC(=O)CS(=O)(=O)N1CCC(c2c3cc(C(c4ccc(Cl)cc4)c4ccc(Cl)cc4)ccc3nn2C2CC2)CC1` [Compound 137]: the results for the EC50 in assay [1] and in assay [2] were 158 nM and greater than 10000 nM, respectively.

As for `NC(=O)COc1ccc(N2CCC(c3nn(C4CC4)c4ccc(C(c5ccc(Cl)cc5)c5ccc(Cl)cc5)cc34)CC2)cc1` [Compound 175], the EC50 was 1130 nM in assay [1] and greater than 10000 nM in assay [2].

Turning to `O=C(O)c1ccc(N2CCC(c3n[nH]c4ccc(C(c5ccc(Cl)cc5)c5ccc(Cl)cc5)cc34)CC2)cc1` [Compound 213], the EC50 is 367 nM in assay [1] and greater than 10000 nM in assay [2].

Turning to `CS(=O)(=O)N1CCC(Nc2n[nH]c3ccc(C(c4ccc(Cl)cc4)c4ccc(Cl)cc4)cc23)CC1` [Compound 125], the EC50 was 135 nM in assay [1] and greater than 10000 nM in assay [2].

For the compound `NC(=O)c1ccc(S(=O)(=O)N2CCC(Nc3n[nH]c4ccc(C(c5ccc(Cl)cc5)c5ccc(Cl)cc5)cc34)CC2)cc1` [Compound 120], the EC50 in assay [1] is 50 nM; in assay [2], greater than 10000 nM.

For the compound `O=C(O)c1ccc(CN2CCC(c3c4cc(C(c5ccc(Cl)cc5)c5ccc(Cl)cc5)ccc4nn3C3CC3)CC2)nc1` [Compound 252], the figures for the EC50 in assay [1] and in assay [2] were 77 nM and greater than 10000 nM, respectively.

With `O=C(O)c1ccc(S(=O)(=O)N2CCC(c3c4cc(C(c5ccc(Cl)cc5)c5ccc(Cl)cc5)ccc4nn3C3CC3)CC2)o1` [Compound 171, 5-(4-(5-(bis(4-chlorophenyl)methyl)-2-cyclopropyl-2H-indazol-3-yl)piperidin-1-ylsulfonyl)furan-2-carboxylic acid], the EC50 in assay [1] was 3 nM; in assay [2], greater than 10000 nM.

Consider `COc1ccc(S(=O)(=O)N2CCC(c3c4cc(C(c5ccc(Cl)cc5)c5ccc(Cl)cc5)ccc4nn3C3CC3)CC2)cc1` [Compound 152, 5-(bis(4-chlorophenyl)methyl)-2-cyclopropyl-3-(1-(4-methoxyphenylsulfonyl)piperidin-4-yl)-2H-indazole], for which the EC50 is 17 nM in assay [1] and greater than 10000 nM in assay [2].

Consider `O=S(=O)(N1CCN(c2nn(CCO)c3ccc(C(c4ccc(Cl)cc4)c4ccc(Cl)cc4)cc23)CC1)C(F)(F)F` [Compound 42], for which the EC50 in assay [1] is 6 nM; in assay [2], greater than 10000 nM.

On to `O=C(O)c1cc(S(=O)(=O)N2CCC(c3c4cc(C(c5ccc(Cl)cc5)c5ccc(Cl)cc5)ccc4nn3C3CC3)CC2)ccc1F` [Compound 162, 5-(4-(5-(bis(4-chlorophenyl)methyl)-2-cyclopropyl-2H-indazol-3-yl)piperidin-1-ylsulfonyl)-2-fluorobenzoic acid], for which the EC50 is 4 nM in assay [1] and 5200 nM in assay [2].

`NC(=O)Cc1ccc(N2CCC(c3nn(C4CC4)c4ccc(C(c5ccc(Cl)cc5)c5ccc(Cl)cc5)cc34)CC2)cc1` [Compound 182]: the EC50 is 271 nM in assay [1] and greater than 10000 nM in assay [2].

For `CC(C)(C)OC(=O)N1CCC(Nc2n[nH]c3ccc(C(c4ccc(Cl)cc4)c4ccc(Cl)cc4)cc23)CC1` [Compound 74], the EC50 in assay [1] is 162 nM; in assay [2], greater than 10000 nM.
